For 26 molecules, EC50 results are on record in US9896434B2, “Substituted indanone compounds as GPR119 modulators for the treatment of diabetes, obesity, dyslipidemia and related disorders” (SANOFI, priority 2014, dated 2018).

One may read the EC50 as the concentration needed to bring the measured effect to its halfway point.

This test concerns the target T1, human GPR119 (Homo sapiens, UniProt Q8TDV5).
T1 construct: expressed in transfected cells
T1 sequence (Q8TDV5 1-335): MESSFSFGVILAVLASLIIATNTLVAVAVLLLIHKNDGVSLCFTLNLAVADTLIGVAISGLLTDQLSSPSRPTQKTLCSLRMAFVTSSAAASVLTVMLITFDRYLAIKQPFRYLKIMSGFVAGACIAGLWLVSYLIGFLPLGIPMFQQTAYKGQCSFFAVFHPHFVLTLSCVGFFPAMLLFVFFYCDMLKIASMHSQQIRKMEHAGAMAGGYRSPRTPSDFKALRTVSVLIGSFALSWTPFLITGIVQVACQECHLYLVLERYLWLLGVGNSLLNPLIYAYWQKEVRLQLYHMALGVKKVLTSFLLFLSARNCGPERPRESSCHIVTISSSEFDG
Put plainly: Functional cellular assay measuring GPR119-mediated cAMP release (HTRF). To be noted: HEK-293 cell line stably expressing recombinant human GPR119; cAMP response, 30 minutes at room temperature. Type of test: cell-based. The method, then:
Functional Cellular Assays Measuring GPR119-Mediated cAMP Release
Compounds of the invention, which are agonists of GPR119, were characterized by functional assays measuring the cAMP response of HEK-293 cell lines stably expressing recombinant GPR119 from man, mouse or rat, or by using a hamster cell line HIT-T15 expressing GPR119 endogenously. The cAMP content was determined using a kit based on homogenous time-resolved fluorescence (HTRF) from Cisbio Corp. (cat. no. 62AM4PEC). For preparation, cells were split into T175 culture flasks and grown to near confluency in medium (DMEM/10% FCS for HEK-293 cells, and F-12K medium/10% horse serum/2.5% FCS for HIT-T15 cells, respectively). Medium was then removed and cells washed with PBS lacking calcium and magnesium ions, followed by proteinase treatment with accutase (Sigma-Aldrich, cat. no. A6964). Detached cells were washed and resuspended in assay buffer (1×HBSS; 20 mM HEPES, 0.1% BSA, 2 mM IBMX) and cellular density determined. They were then diluted to 400000 cells/mL and 25 μL-aliquots dispensed to the wells of 96-well plates. For measurement, 25 μL of test compound in assay buffer was added and incubated for 30 minutes at room temperature. After addition of HTRF reagents diluted in lysis buffer, the plates were incubated for 1 hour, followed by measuring the fluorescence ratio at 665 vs. 620 nm. Potency of the agonists was quantified by determining the concentrations that caused 50% of the maximal response/activation (EC50). See Table 4 for exemplary data obtained using the cell line expressing human GPR119.
(Time-resolved FRET reads energy transfer from a long-lived donor to a nearby acceptor.)

Regarding `COC(=O)C1Cc2ccc(N3CC[C@@H](Oc4ccc(OCC5CC5)nc4)C3=O)cc2C1=O` (stereo partly drawn) [Example 1-10, methyl 6-[(3R)-3-[[6-(cyclopropylmethoxy)-3-pyridyl]oxy]-2-oxo-pyrrolidin-1-yl]-1-oxo-indane-2-carboxylate], the EC50 stood at 41 nM.

`O=C1CC(CCO)c2ccc(N3CC[C@@H](Oc4ccc(OCC5CC5)nc4)C3=O)cc21` (stereo partly drawn) [Example 1-08, (3R)-3-[[6-(cyclopropylmethoxy)-3-pyridyl]oxy]-1-[1-(2-hydroxyethyl)-3-oxo-indan-5-yl]pyrrolidin-2-one]: the EC50 amounted to 79 nM.

Consider `O=C(CC1Cc2c(F)cc(N3CC[C@@H](Oc4ccc(OCC5CC5)nc4)C3=O)cc2C1=O)NCCO` (stereo partly drawn) [Example 3-09, 2-{6-[(R)-3-(6-cyclopropylmethoxy-pyridin-3-yloxy)-2-oxo-pyrrolidin-1-yl]-4-fluoro-1-oxo-indan-2-yl}-N-(2-hydroxy-ethyl)-acetamide], for which the 50% effective concentration (EC50) stood at 289 nM.

Consider `CNC(=O)CC1CC(=O)c2cc(N3CC[C@@H](Oc4ccc(OCC5CC5)nc4)C3=O)ccc21` (stereo partly drawn) [Example 3-02, 2-[5-[(3R)-3-[[6-(cyclopropylmethoxy)-3-pyridyl]oxy]-2-oxo-pyrrolidin-1-yl]-3-oxo-indan-1-yl]-N-methyl-acetamide], for which the EC50 is 188 nM.

For `COC(=O)CC1CC(=O)c2cc(N3CC[C@@H](Oc4ccc(OCC5CC5)nc4)C3=O)cc(F)c21` (stereo partly drawn) [Example 1-09, methyl 2-[5-[(3R)-3-[[6-(cyclopropylmethoxy)-3-pyridyl]oxy]-2-oxo-pyrrolidin-1-yl]-7-fluoro-3-oxo-indan-1-yl]acetate], the EC50 came out at 12 nM.

Regarding `COC(=O)CC1Cc2ccc(N3CCC(Oc4ccc(OCCC(C)C)cc4)C3=O)cc2C1=O` (centres unmarked) [Example 1-02, methyl 2-[6-[3-(4-isopentyloxyphenoxy)-2-oxo-pyrrolidin-1-yl]-1-oxo-indan-2-yl]acetate], the concentration giving a half-maximal response (EC50) worked out at 262 nM.

For the molecule `COC(=O)CC1Cc2c(F)cc(N3CC[C@@H](Oc4ccc(OCC5CC5)nc4)C3=O)cc2C1=O` (stereo partly drawn) [Example 1-04, {6-[(R)-3-(6-cyclopropylmethoxy-pyridin-3-yloxy)-2-oxo-pyrrolidin-1-yl]-4-fluoro-1-oxo-indan-2-yl}-acetic acid methyl ester], the EC50 turned out to be 14 nM.

Consider `COC(=O)CC1CC(=O)c2cc(N3CC[C@@H](Oc4ccc(Oc5ccc(F)cc5)cc4)C3=O)ccc21` (stereo partly drawn) [Example 1-03, methyl 2-[5-[(3R)-3-[4-(4-fluorophenoxy)phenoxy]-2-oxo-pyrrolidin-1-yl]-3-oxo-indan-1-yl]acetate], for which the EC50 came to 111 nM.

For `O=C1c2cc(N3CC[C@@H](Oc4ccc(OCC5CC5)nc4)C3=O)cc(F)c2CC1CC(=O)N1CCOCC1` (stereo partly drawn) [Example 3-07, (3R)-3-[[6-(cyclopropylmethoxy)-3-pyridyl]oxy]-1-[7-fluoro-2-(2-morpholino-2-oxo-ethyl)-3-oxo-indan-5-yl]pyrrolidin-2-one], the EC50 is 83 nM.

Turning to `NC(=O)CC1CC(=O)c2cc(N3CC[C@@H](Oc4ccc(OCC5CC5)nc4)C3=O)ccc21` (stereo partly drawn) [Example 3-04, 2-[5-[(3R)-3-[[6-(cyclopropylmethoxy)-3-pyridyl]oxy]-2-oxo-pyrrolidin-1-yl]-3-oxo-indan-1-yl]acetamide], the EC50 was 320 nM.

Regarding `CN(C)C(=O)C1CC(=O)c2cc(N3CC[C@@H](Oc4ccc(OCC5CC5)nc4)C3=O)cc(F)c21` (stereo partly drawn) [Example 1-16, 5-[(3R)-3-[[6-(cyclopropylmethoxy)-3-pyridyl]oxy]-2-oxo-pyrrolidin-1-yl]-7-fluoro-N,N-dimethyl-3-oxo-indane-1-carboxamide], the EC50 worked out at 117 nM.

On to `O=C(O)CC1CC(=O)c2cc(N3CC[C@@H](Oc4ccc(OCC5CC5)nc4)C3=O)cc(F)c21` (stereo partly drawn) [Example 2-03, 2-[5-[(3R)-3-[[6-(cyclopropylmethoxy)-3-pyridyl]oxy]-2-oxo-pyrrolidin-1-yl]-7-fluoro-3-oxo-indan-1-yl]acetic acid], for which the EC50 was 218 nM.

In the case of `COC(=O)CC1CC(=O)c2cc(N3CC[C@@H](Oc4ccc(OC5CC5)nc4)C3=O)cc(F)c21` (stereo partly drawn) [Example 1-11, methyl 2-[5-[(3R)-3-[[6-(cyclopropoxy)-3-pyridyl]oxy]-2-oxo-pyrrolidin-1-yl]-7-fluoro-3-oxo-indan-1-yl]acetate], the EC50 is 38 nM.

With `O=C(O)C[C@@H]1CC(=O)c2cc(N3CC[C@@H](Oc4ccc(OCC5CC5)nc4)C3=O)ccc21` [Example 2-05, 2-[(1S)-5-[(3R)-3-[[6-(cyclopropylmethoxy)-3-pyridyl]oxy]-2-oxo-pyrrolidin-1-yl]-3-oxo-indan-1-yl]acetic acid], the EC50 is 1990 nM.

With `O=C1c2cc(N3CC[C@@H](Oc4ccc(OCC5CC5)nc4)C3=O)cc(F)c2CC1CCO` (stereo partly drawn) [Example 1-05, (3R)-3-[[6-(cyclopropylmethoxy)-3-pyridyl]oxy]-1-[7-fluoro-2-(2-hydroxyethyl)-3-oxo-indan-5-yl]pyrrolidin-2-one], the EC50 is 233 nM.

Regarding `COC(=O)C[C@@H]1CC(=O)c2cc(N3CC[C@@H](Oc4ccc(OCC5CC5)nc4)C3=O)ccc21` [Example 1-14, methyl 2-[(1S)-5-[(3R)-3-[[6-(cyclopropylmethoxy)-3-pyridyl]oxy]-2-oxo-pyrrolidin-1-yl]-3-oxo-indan-1-yl]acetate], the EC50 was 19 nM.

On to `O=C(CC1CC(=O)c2cc(N3CC[C@@H](Oc4ccc(OCC5CC5)nc4)C3=O)ccc21)NC1CC1` (stereo partly drawn) [Example 3-03, N-cyclopropyl-2-[5-[(3R)-3-[[6-(cyclopropylmethoxy)-3-pyridyl]oxy]-2-oxo-pyrrolidin-1-yl]-3-oxo-indan-1-yl]acetamide], for which the EC50 was found to be 339 nM.

As to `CN(C)C(=O)CC1CC(=O)c2cc(N3CC[C@@H](Oc4ccc(OCC5CC5)nc4)C3=O)cc(F)c21` (stereo partly drawn) [Example 3-11, 2-[5-[(3R)-3-[[6-(cyclopropylmethoxy)-3-pyridyl]oxy]-2-oxo-pyrrolidin-1-yl]-7-fluoro-3-oxo-indan-1-yl]-N,N-dimethyl-acetamide], the EC50 came to 59 nM.

As to `COC(=O)CC1CC(=O)c2cc(N3CC[C@@H](Oc4ccc(OCC5CC5)nc4)C3=O)ccc21` (stereo partly drawn) [Example 1-06, methyl 2-[5-[(3R)-3-[[6-(cyclopropylmethoxy)-3-pyridyl]oxy]-2-oxo-pyrrolidin-1-yl]-3-oxo-indan-1-yl]acetate], the EC50 stood at 19 nM.

As to `CN(C)C(=O)CC1CC(=O)c2cc(N3CC[C@@H](Oc4ccc(OCC5CC5)nc4)C3=O)ccc21` (stereo partly drawn) [Example 3-01, 2-[5-[(3R)-3-[[6-(cyclopropylmethoxy)-3-pyridyl]oxy]-2-oxo-pyrrolidin-1-yl]-3-oxo-indan-1-yl]-N,N-dimethyl-acetamide], the EC50 is 82 nM.

With `O=C(O)C[C@H]1CC(=O)c2cc(N3CC[C@@H](Oc4ccc(OCC5CC5)nc4)C3=O)ccc21` [Example 2-04, 2-[5-[(3R)-3-[[6-(cyclopropylmethoxy)-3-pyridyl]oxy]-2-oxo-pyrrolidin-1-yl]-3-oxo-indan-1-yl]acetic acid], the EC50 came out at 505 nM.

As for `CNC(=O)CC1Cc2c(F)cc(N3CC[C@@H](Oc4ccc(OCC5CC5)nc4)C3=O)cc2C1=O` (stereo partly drawn) [Example 3-08, 2-[6-[(3R)-3-[[6-(cyclopropylmethoxy)-3-pyridyl]oxy]-2-oxo-pyrrolidin-1-yl]-4-fluoro-1-oxo-indan-2-yl]-N-methyl-acetamide], the EC50 came to 66 nM.

Turning to `O=C1CC(CCO)c2ccc(N3CC[C@@H](Oc4ccc(Oc5ccc(F)cc5)nc4)C3=O)cc21` (stereo partly drawn) [Example 1-01, (3R)-3-[[6-(4-Fluorophenoxy)-3-pyridyl]oxy]-1-[1-(2-hydroxyethyl)-3-oxo-indan-5-yl]pyrrolidin-2-one], the EC50 stood at 311 nM.

For `NC(=O)CC1CC(=O)c2cc(N3CC[C@@H](Oc4ccc(OCC5CC5)nc4)C3=O)cc(F)c21` (stereo partly drawn) [Example 3-10, 2-[5-[(3R)-3-[[6-(cyclopropylmethoxy)-3-pyridyl]oxy]-2-oxo-pyrrolidin-1-yl]-7-fluoro-3-oxo-indan-1-yl]acetamide], the concentration giving a half-maximal response (EC50) was determined as 73 nM.

As for `O=C1CC(CO)c2c(F)cc(N3CC[C@@H](Oc4ccc(OCC5CC5)nc4)C3=O)cc21` (stereo partly drawn) [Example 1-17, (3R)-3-[[6-(cyclopropylmethoxy)-3-pyridyl]oxy]-1-[7-fluoro-1-(hydroxymethyl)-3-oxo-indan-5-yl]pyrrolidin-2-one], the EC50 amounted to 72 nM.

As for `COC(=O)CC1CC(=O)c2cc(N3CC[C@@H](Oc4ccc(OC5CC5)nc4)C3=O)ccc21` (stereo partly drawn) [Example 1-13, methyl 2-[5-[(3R)-3-[[6-(cyclopropoxy)-3-pyridyl]oxy]-2-oxo-pyrrolidin-1-yl]-3-oxo-indan-1-yl]acetate], the EC50 was determined as 98 nM.
